Tested on: HIV-1 YU-2 strain
Assay: HIV-1 replication measured by p24 production in infected PBMCs
Format: cell-based
Details: Human immunodeficiency virus 1, PBMC; 5 μM ABX464; PBMCs from 6 donors infected with YU-2 strain; read-out: inhibition of viral replication (p24 production)
Method: Buffy coats from HIV-negative individuals were obtained from the local blood donation center in Centre de transfusion sanguine Montpellier. Human peripheral blood mononuclear cells (PBMCs) were isolated by Ficoll (Histopaque, Sigma) gradient centrifugation. CD4+ and CD8+ T cells were purified from PBMCs after Ficoll gradient centrifugation by Human CD4+ beads positive selection and CD8+ beads positive selection, respectively (Miltenyi). PBMCs, CD4+ and CD8+ T cells were grown at 37° C. and 5% CO2 to a density of 1.5×10^6 cells/ml in RPMI GlutaMAX medium (Life Technologies) supplemented with 10% fetal calf serum (FCS) (Thermo Fisher), 40 U/ml of IL2 (PeproTech) and 5 μg/mL of PHA (Roche) for 2 days. […]
PBMCs from 6 HIV-negative donors were infected with the YU-2 strain, followed by treatment with ABX464. […] To highlight potential new splicing events induced by ABX464, we used a custom bioinformatics pipeline with the main step involving the assembly of putative transcripts from targeted RNA sequencing reads to construct contigs (Illumina paired-end 2×75 bp) (FIGS. 6 A and B). […] The HIV profiling datasets used in our analysis yielded high sequence coverage (2 to 30 million reads for the 9 kb genome), allowing deep quantification of HIV splice variants.

FC(F)(F)Oc1ccc(Nc2ccc3cccc(Cl)c3n2)cc1 [ABX464, 8-chloro-N-(4-(trifluoromethoxy)phenyl)quinolin-2-amine]
inhibition at 5 µM: > 70%

Source: patent publication US20220145406A1, “BIOMARKERS, AND USES IN TREATMENT OF VIRAL INFECTIONS, INFLAMMATIONS, OR CANCER” (ABIVAX, priority 2018, published 2022)
